Experimental data: the NIST ThermoML archive (doi:10.1016/j.fluid.2012.12.028)
Numbers after ± are expanded uncertainties.

Conditions: Liquid, Ebulliometric method (Recirculating still)

CON=C(C)C [propan-2-one O-methyl oxime]
Conditions	vapor or sublimation pressure [kPa]
307.8 K	21.3 ± 0.7
312.4 K	26.3 ± 0.8
316.6 K	32.3 ± 0.8
319.6 K	36.3 ± 0.9
322.9 K	42.3 ± 1
327.6 K	51.3 ± 1
330 K	56.3 ± 1.1
332.2 K	61.3 ± 1.1
334.2 K	66.3 ± 1.2
336.1 K	71.3 ± 1.3
337.7 K	76.3 ± 1.3
339.6 K	81.3 ± 1.3
341 K	86.3 ± 1.5
342.6 K	91.3 ± 1.4
344.1 K	96.3 ± 1.5
